From paper PMC6440634, “Phosphorylation of a serine/proline-rich motif in oxysterol binding protein-related protein 4L (ORP4L) regulates cholesterol and vimentin binding” (PLoS ONE, 2019) come the findings set out here.

The structures appear in SMILES notation. Substitutions are numbered along the chain they refer to.

Assay in all cases: specific radioligand binding in solution, Scatchard
For experiment [1], the target named is T1, ORP4L (Homo sapiens, UniProt Q969R2, S762A/S763A/S766A/S768A).
T1 construct: gene OSBP2; about 116 kDa on SDS-PAGE, dimer by cross-linking; residues S762SPSSPSS769 in ORD
T1 sequence (Q969R2 1-916 S762A/S763A/S766A/S768A): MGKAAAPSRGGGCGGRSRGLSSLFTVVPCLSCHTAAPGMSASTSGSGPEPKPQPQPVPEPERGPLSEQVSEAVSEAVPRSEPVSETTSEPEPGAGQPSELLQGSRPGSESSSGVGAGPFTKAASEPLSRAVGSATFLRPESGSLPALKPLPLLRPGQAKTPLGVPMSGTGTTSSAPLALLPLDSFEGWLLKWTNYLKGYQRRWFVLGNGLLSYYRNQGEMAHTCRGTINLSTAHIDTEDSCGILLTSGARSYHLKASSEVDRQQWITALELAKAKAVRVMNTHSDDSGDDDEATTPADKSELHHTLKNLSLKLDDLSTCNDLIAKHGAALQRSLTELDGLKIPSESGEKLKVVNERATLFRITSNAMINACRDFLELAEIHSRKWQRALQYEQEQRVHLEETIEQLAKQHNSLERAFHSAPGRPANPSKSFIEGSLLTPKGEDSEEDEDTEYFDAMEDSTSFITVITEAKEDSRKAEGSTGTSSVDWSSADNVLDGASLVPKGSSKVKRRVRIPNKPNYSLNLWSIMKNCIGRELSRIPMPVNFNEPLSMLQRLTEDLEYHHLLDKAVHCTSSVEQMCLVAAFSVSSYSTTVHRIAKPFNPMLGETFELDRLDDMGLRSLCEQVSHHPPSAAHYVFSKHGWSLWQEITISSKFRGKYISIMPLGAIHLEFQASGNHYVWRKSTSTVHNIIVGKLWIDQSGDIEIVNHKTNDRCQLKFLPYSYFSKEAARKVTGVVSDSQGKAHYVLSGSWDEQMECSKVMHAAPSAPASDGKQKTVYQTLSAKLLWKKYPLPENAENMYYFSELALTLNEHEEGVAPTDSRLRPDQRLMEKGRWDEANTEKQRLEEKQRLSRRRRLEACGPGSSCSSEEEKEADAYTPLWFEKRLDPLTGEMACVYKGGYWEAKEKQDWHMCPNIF

Experiment [2] addresses T2, ORP4L (Homo sapiens, UniProt Q969R2).
T2 construct: gene OSBP2; about 116 kDa on SDS-PAGE, dimer by cross-linking; residues S762SPSSPSS769 in ORD
T2 sequence (Q969R2 1-916): T1 sequence (Q969R2 1-916 S762A/S763A/S766A/S768A) with A762S, A763S, A766S, A768S

Experiment [3] has as its target T3, ORP4L (Homo sapiens, UniProt Q969R2, S762D/S763D/S766D/S768D).
T3 construct: gene OSBP2; about 116 kDa on SDS-PAGE, dimer by cross-linking; residues S762SPSSPSS769 in ORD
T3 sequence (Q969R2 1-916 S762D/S763D/S766D/S768D): T1 sequence (Q969R2 1-916 S762A/S763A/S766A/S768A) with A762D, A763D, A766D, A768D

One may read the Kd as the free concentration of one partner at which half of the binding sites on the other are occupied at equilibrium, for simple one-to-one binding. A low value points to tighter binding.

For the compound `C[C@H](CCCC(C)(C)O)[C@H]1CC[C@H]2[C@@H]3CC=C4C[C@@H](O)CC[C@]4(C)[C@H]3CC[C@]12C` [25OH], the Kd was 0.062 ± 0.028 µM at ORP4L [1], 0.045 ± 0.012 µM on ORP4L [2] and 0.06 ± 0.018 µM at ORP4L [3].
In the case of `CC(C)CCC[C@@H](C)[C@H]1CC[C@H]2[C@@H]3CC=C4C[C@@H](O)CC[C@]4(C)[C@H]3CC[C@]12C` [cholesterol], the Kd on ORP4L [1] was 0.255 ± 0.09 µM; on ORP4L [2] it was 0.16 ± 0.04 µM; on ORP4L [3], 0.144 ± 0.043 µM.
